This is an account of results in ChEMBL document CHEMBL3044935, “Synthesis and in vitro microbiological evaluation of novel 2,4-diaryl-3-azabicyclo[3.3.1]nonan-9,5-spiro-1,2,4-triazolidine-3-thiones” (2012).

≈ marks a conversion by molar mass, not a printed value.

Format in all cases: functional
One test relates to Nannizzia gypsea. The test can be described thus: Antimicrobial activity against Microsporum gypseum after 72 to 96 hr by two-fold serial dilution method.
Another test concerns Rhizopus. Description: Antimicrobial activity against Rhizopus after 72 to 96 hr by two-fold serial dilution method.
For a further test, the system named is Mucor. The test can be described thus: Antimicrobial activity against Mucor after 72 to 96 hr by two-fold serial dilution method.
Another test has as its system Aspergillus flavus. Description: Antimicrobial activity against Aspergillus flavus after 72 to 96 hr by two-fold serial dilution method.
The subject of another test is Klebsiella pneumoniae. Description: Antimicrobial activity against Klebsiella pneumoniae after 24 hr by two-fold serial dilution method.
Another test deals with Escherichia coli. Description: Antimicrobial activity against Escherichia coli after 24 hr by two-fold serial dilution method.
The test system of a further test is Shigella flexneri. The test can be described thus: Antimicrobial activity against Shigella flexneri after 24 hr by two-fold serial dilution method.
The test system of the next test is Vibrio cholerae. The test can be described thus: Antimicrobial activity against Vibrio cholerae after 24 hr by two-fold serial dilution method.
The next test relates to Salmonella typhi. Description: Antimicrobial activity against Salmonella enterica subsp. enterica serovar Typhi after 24 hr by two-fold serial dilution method.
A further test relates to Streptococcus. Description: Antimicrobial activity against beta-hemolytic Streptococcus after 24 hr by two-fold serial dilution method.
The next test has as its system Staphylococcus aureus. Description: Antimicrobial activity against Staphylococcus aureus after 24 hr by two-fold serial dilution method.

What is called MIC is the least concentration at which growth counts as inhibited. The low end stands for greater potency, the high end for weaker potency. Turning to `COc1ccc(C2NC(c3ccc(OC)cc3)C3CCCC2C32NNC(=S)N2)cc1` (stereo not drawn), the MIC is 50 µg/mL (≈ 118 µM) in the test on Nannizzia gypsea; 25 µg/mL (≈ 58.9 µM) against Rhizopus; 50 µg/mL (≈ 118 µM) against Mucor; 100 µg/mL (≈ 236 µM) against Aspergillus flavus; 12.5 µg/mL (≈ 29.4 µM) in the test on Klebsiella pneumoniae; 100 µg/mL (≈ 236 µM) in the test with Escherichia coli. In addition, the MIC worked out at 25 µg/mL (≈ 58.9 µM) with Shigella flexneri; 50 µg/mL (≈ 118 µM) in the test with Vibrio cholerae; 200 µg/mL (≈ 471 µM) against Salmonella typhi; 100 µg/mL (≈ 236 µM) in the test on Streptococcus; 100 µg/mL (≈ 236 µM) in the test on Staphylococcus aureus.

Take `S=C1NNC2(N1)C1CCCC2C(c2ccccc2)NC1c1ccccc1` (stereo not drawn): the MIC stood at 200 µg/mL (≈ 549 µM) with Nannizzia gypsea; 200 µg/mL (≈ 549 µM) against Rhizopus; 200 µg/mL (≈ 549 µM) against Mucor; 100 µg/mL (≈ 274 µM) in the test on Aspergillus flavus; 100 µg/mL (≈ 274 µM) against Klebsiella pneumoniae; 200 µg/mL (≈ 549 µM) against Escherichia coli. In addition, the MIC was determined as 100 µg/mL (≈ 274 µM) with Shigella flexneri; 50 µg/mL (≈ 137 µM) against Vibrio cholerae; 50 µg/mL (≈ 137 µM) in the test with Salmonella typhi; 100 µg/mL (≈ 274 µM) against Streptococcus; 100 µg/mL (≈ 274 µM) against Staphylococcus aureus.

With `Fc1ccc(C2NC(c3ccc(F)cc3)C3CCCC2C32NNC(=S)N2)cc1` (stereo not drawn), the MIC with Nannizzia gypsea turned out to be 6.25 µg/mL (≈ 15.6 µM); in the test with Rhizopus, 12.5 µg/mL (≈ 31.2 µM); against Mucor, 100 µg/mL (≈ 250 µM); with Aspergillus flavus, 6.25 µg/mL (≈ 15.6 µM); against Klebsiella pneumoniae, 6.25 µg/mL (≈ 15.6 µM); against Escherichia coli, 100 µg/mL (≈ 250 µM). Moreover, the MIC with Shigella flexneri stood at 50 µg/mL (≈ 125 µM); against Vibrio cholerae, 12.5 µg/mL (≈ 31.2 µM); with Salmonella typhi it was 100 µg/mL (≈ 250 µM); against Streptococcus it was 12.5 µg/mL (≈ 31.2 µM); with Staphylococcus aureus it was 6.25 µg/mL (≈ 15.6 µM).

Regarding `S=C1NNC2(N1)C1CCCC2C(c2ccc(Cl)cc2)NC1c1ccc(Cl)cc1` (stereo not drawn), the MIC against Nannizzia gypsea came out at 12.5 µg/mL (≈ 28.8 µM); in the test on Rhizopus it was 25 µg/mL (≈ 57.7 µM); against Mucor, 12.5 µg/mL (≈ 28.8 µM); with Aspergillus flavus it was 12.5 µg/mL (≈ 28.8 µM); with Klebsiella pneumoniae, 100 µg/mL (≈ 231 µM); with Escherichia coli it was 12.5 µg/mL (≈ 28.8 µM). For the same molecule, the minimal inhibitory concentration (MIC) in the test with Shigella flexneri is 100 µg/mL (≈ 231 µM); in the test on Vibrio cholerae, 25 µg/mL (≈ 57.7 µM); against Salmonella typhi, 12.5 µg/mL (≈ 28.8 µM); with Streptococcus, 50 µg/mL (≈ 115 µM); with Staphylococcus aureus, 12.5 µg/mL (≈ 28.8 µM).

For the molecule `S=C1NNC2(N1)C1CCCC2C(c2ccc(Br)cc2)NC1c1ccc(Br)cc1` (stereo not drawn), the MIC with Nannizzia gypsea turned out to be 25 µg/mL (≈ 47.9 µM); in the test with Rhizopus, 12.5 µg/mL (≈ 23.9 µM); in the test on Mucor it was 12.5 µg/mL (≈ 23.9 µM); in the test with Aspergillus flavus it was 6.25 µg/mL (≈ 12 µM); with Klebsiella pneumoniae it was 100 µg/mL (≈ 191 µM); in the test on Escherichia coli it was 100 µg/mL (≈ 191 µM). Also, the MIC in the test with Shigella flexneri came to 50 µg/mL (≈ 95.7 µM); against Vibrio cholerae it was 25 µg/mL (≈ 47.9 µM); against Salmonella typhi it was 12.5 µg/mL (≈ 23.9 µM); in the test with Streptococcus it was 6.25 µg/mL (≈ 12 µM); with Staphylococcus aureus, 12.5 µg/mL (≈ 23.9 µM).

On to `O=[N+]([O-])c1ccc(C2NC(c3ccc([N+](=O)[O-])cc3)C3CCCC2C32NNC(=S)N2)cc1` (stereo not drawn), for which the minimal inhibitory concentration (MIC) against Nannizzia gypsea worked out at 12.5 µg/mL (≈ 27.5 µM); against Rhizopus it was 12.5 µg/mL (≈ 27.5 µM); in the test on Mucor, 25 µg/mL (≈ 55 µM); with Aspergillus flavus, 25 µg/mL (≈ 55 µM); in the test on Klebsiella pneumoniae, 50 µg/mL (≈ 110 µM); in the test on Escherichia coli, 100 µg/mL (≈ 220 µM). Moreover, the MIC came out at 50 µg/mL (≈ 110 µM) against Shigella flexneri; 25 µg/mL (≈ 55 µM) with Vibrio cholerae; 100 µg/mL (≈ 220 µM) in the test with Salmonella typhi; 12.5 µg/mL (≈ 27.5 µM) in the test on Streptococcus; 12.5 µg/mL (≈ 27.5 µM) in the test on Staphylococcus aureus.

Consider `Cc1ccc(C2NC(c3ccc(C)cc3)C3CCCC2C32NNC(=S)N2)cc1` (stereo not drawn), for which the MIC in the test on Nannizzia gypsea is 50 µg/mL (≈ 127 µM); against Rhizopus, 50 µg/mL (≈ 127 µM); against Mucor, 100 µg/mL (≈ 255 µM); against Aspergillus flavus, 200 µg/mL (≈ 509 µM); in the test on Klebsiella pneumoniae, 200 µg/mL (≈ 509 µM); against Escherichia coli it was 200 µg/mL (≈ 509 µM). Moreover, the MIC was determined as 200 µg/mL (≈ 509 µM) against Shigella flexneri; 50 µg/mL (≈ 127 µM) in the test with Vibrio cholerae; 50 µg/mL (≈ 127 µM) against Salmonella typhi; 50 µg/mL (≈ 127 µM) in the test on Streptococcus; 50 µg/mL (≈ 127 µM) against Staphylococcus aureus.

On to `O=C(O)c1cn(C2CC2)c2cc(N3CCNCC3)c(F)cc2c1=O` [CIPROFLOXACIN], for which the MIC came to 12.5 µg/mL (≈ 37.7 µM) against Klebsiella pneumoniae; 25 µg/mL (≈ 75.4 µM) against Escherichia coli; 25 µg/mL (≈ 75.4 µM) in the test with Shigella flexneri; 25 µg/mL (≈ 75.4 µM) in the test with Vibrio cholerae; 25 µg/mL (≈ 75.4 µM) with Salmonella typhi; 12.5 µg/mL (≈ 37.7 µM) against Streptococcus. In the test on Staphylococcus aureus, this molecule had a minimal inhibitory concentration (MIC) of 12.5 µg/mL (≈ 37.7 µM).

Consider `OC(Cn1cncn1)(Cn1cncn1)c1ccc(F)cc1F` [FLUCONAZOLE], for which the MIC amounted to 12.5 µg/mL (≈ 40.8 µM) against Nannizzia gypsea, 25 µg/mL (≈ 81.6 µM) in the test on Rhizopus, 12.5 µg/mL (≈ 40.8 µM) with Mucor and 25 µg/mL (≈ 81.6 µM) against Aspergillus flavus.
